Reference: US7977481B2, “Pyrimidinyl-thiophene kinase modulators” (SGX Pharmaceuticals, Inc., priority 2005, dated 2011)
pIC50: −log10 of the molar value.

These compounds were tested against T1, Autophosphorylated AurA kinase (Homo sapiens, UniProt O14965) (assay: AurA Luminescence-Based ATP Depletion Enzyme Assay). Details: 10 μM ATP.
T1 construct: made in house; host or cells: Sf9 insect cells
T1 sequence (O14965 1-403): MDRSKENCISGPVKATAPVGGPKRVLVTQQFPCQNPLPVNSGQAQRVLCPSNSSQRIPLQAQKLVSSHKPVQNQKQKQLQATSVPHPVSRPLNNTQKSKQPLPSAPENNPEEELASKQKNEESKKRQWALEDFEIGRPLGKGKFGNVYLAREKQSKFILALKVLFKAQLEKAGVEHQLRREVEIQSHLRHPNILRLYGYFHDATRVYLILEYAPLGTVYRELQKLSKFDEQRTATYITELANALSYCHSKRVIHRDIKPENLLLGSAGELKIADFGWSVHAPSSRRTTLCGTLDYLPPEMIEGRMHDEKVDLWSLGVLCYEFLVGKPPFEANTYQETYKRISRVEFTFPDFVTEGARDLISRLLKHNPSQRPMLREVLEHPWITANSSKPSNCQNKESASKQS
Type: biochemical
Method: AurA Luminescence-Based ATP Depletion Enzyme Assay
Materials: Kemptide peptide substrate=LRRASLG (Biopeptide, San Diego, Calif.), ATP (Sigma Cat#A-3377, FW=551), HEPES buffer, pH 7.5, 10% Brij 35 (Calbiochem Cat#203728), MgCl2, Staurosporine (Streptomyces sp. Sigma Cat#85660-1MG), white Costar 384-well flat-bottom plate (VWR Cat#29444-088), Autophosphorylated AurA kinase (see below), Kinase-Glo™ (Promega Cat#V6712).
Stock Solutions: 10 mM Kemptide peptide (7.72 mg/ml in water), stored at −20° C.; 100 mM HEPES buffer+0.015% Brij 35, pH 7.5 (5 ml 1M HEPES stock+75 μL 10% Brij 35+45 ml miliQH2O); 10 mM ATP (5.51 mg/ml in dH2O) stored at −20° C. (diluted 50 μl into total of 10 ml miliQH2O daily=50 μM ATP working stock); 100 mM MgCl2; 200 μM Staurosporine, 2× Kinase-Glo™ reagent (made fresh or stored at −20° C.).
AurA Autophosphorylation Reaction: ATP and MgCl2 were added to 1-5 mg/ml AurA at final concentrations of 10 mM and 100 mM, respectively. The autophosphorylation reaction was incubated at 21° C. for 2-3 h. The reaction was stopped by the addition of EDTA to a final concentration of 50 mM, and samples were flash frozen with liquid N2 and stored at −80° C.
Standard Assay Setup for 384-well format (20 μl kinase reaction, 40 μl detection reaction): 10 mM MgCl2; 0.2 mM Kemptide peptide; 1 μl test compound (in DMSO); 0.3 μg/ml Autophosphorylated AurA kinase; 10 μM ATP; 100 mM HEPES+0.015% Brij buffer. Positive controls contained DMSO with no test compound. Negative controls contained 5 μM staurosporine. The kinase reactions were initiated at time t=0 by the addition of ATP. Kinase reactions were incubated at 21° C. for 45 min, then 20 μl of Kinase-Glo™ reagent were added to each well to quench the kinase reaction and initiate the luminescence reaction. After a 20 min incubation at 21° C., the luminescence was detected in a plate-reading luminometer.
The Sf9 insect cell pellets (˜18 g) produced from 6 L of cultured cells expressing human Aurora-2 were resuspended in 50 mM Na Phosphate pH 8.0, 500 mM NaCl, 10% glycerol, 0.2% n-octyl-β-D-glucopyranoside (BOG) and 3 mM β-Mercaptoethanol (BME). One tablet of Roche Complete, EDTA-free protease inhibitor cocktail (Cat#1873580) and 85 units Benzonase (Novagen Cat#70746-3)) were added per 1 L of original culture. Pellets were resuspended in approximately 50 ml per 1 L of original culture and were then sonicated on ice with two 30-45 sec bursts (100% duty cycle). Debris was removed by centrifugation and the supernatant was passed through a 0.8 μm syringe filter before being loaded onto a 5 ml Ni^2+ HiTrap column (Pharmacia). The column was washed with 6 column volumes of 50 mM Na Phosphate pH 8.0, 500 mM NaCl, 10% glycerol, 3 mM BME. The protein was eluted using a linear gradient of the same buffer containing 500 mM Imidazole. The eluant (24 ml) was cleaved overnight at 4° C. in a buffer containing 50 mM Na Phosphate pH 8.0, 500 mM NaCl, 10% glycerol, 3 mM BME and 10,000 units of TEV (Invitrogen Cat#10127-017). The protein was passed over a second nickel affinity column as described above; the flow-through was collected. The cleaved protein fractions were combined and concentrated using spin concentrators. Further purification was done by gel filtration chromatography on a S75 sizing column in 50 mM Na Phosphate (pH 8.0), 250 mM NaCl, 1 mM EDTA, 0.1 mM AMP-PNP or ATP buffer, and 5 mM DTT. The cleanest fractions were combined and concentrated to approximately 8-11 mg/ml, and were either flash frozen in liquid nitrogen in 120 μl aliquots and stored at −80° C., or stored at 4° C.

First: O=S(=O)(Nc1ncc[nH]1)c1ccc(Nc2nccc(-c3ccc(S(=O)(=O)N4CCCCC4)s3)n2)cc1
Second: NC(=O)c1cccc(Nc2nccc(-c3ccc(Br)s3)n2)c1
The pIC50 of the first is higher: over 7.00 for the first, 6.30 to 7.00 for the second.

First: CC(O)c1cccc(Nc2nccc(-c3ccc(CNC(=O)c4ccccc4)s3)n2)c1 (stereo not shown)
Second: CC(O)c1cccc(Nc2nccc(-c3cc(C(=O)NCc4ccccc4)cs3)n2)c1 (stereo not shown)
The pIC50 of the first is lower: 6.30 to 7.00 for the first, over 7.00 for the second.

Compared with `CCN(CCC#N)C(=O)c1ccc(-c2ccnc(Nc3ccncc3)n2)s1`, `Cc1noc(C)c1-c1ccc(-c2ccnc(Nc3cccc(C(C)O)c3)n2)s1` (stereo not shown) is higher in pIC50: under 6.30 for the first, 6.30 to 7.00 for the second. The second is the more potent here.

Each compound was assayed on HCT116 cells (assay: 96-well XTT cell survival assay (AurA XTT)). Details: Homo sapiens, HCT-116, 72 hours.
Type: cell-based
Method: HCT116 cells were maintained in McCoy's 5a Medium supplemented with 10% fetal bovine serum (FBS) 2 mM L-Glutamine and 100 units penicillin/100 μg streptomycin, at 37° C. in 5% CO2
Compounds were tested in the following assays in duplicate.
96-well XTT assay: Cells were grown in growth media containing various concentrations of compounds (duplicates) on a 96-well flat bottom plate for 72 hours at 37° C. in 5% CO2. The starting cell number was 5000 cells per well and volume was 120 μl. At the end of the 72-hour incubation, 40 μl of XTT labeling mixture (50:1 solution of sodium 3′-[1-(phenylaminocarbonyl)-3,4-tetrazolium]-bis(4-methoxy-6-nitro) benzene sulfonic acid hydrate and Electron-coupling reagent: PMS (N-methyl dibenzopyrazine methyl sulfate) were added to each well of the plate. After an additional 2-6 hours […] with a spectrophotometer.

Compound `CCN(CCC#N)C(=O)c1ccc(-c2ccnc(Nc3ccncc3)n2)s1` has a pIC50 of 5.30 to 6.00.
